Active and inactive are the calls of the source. No cut-off for these calls is given here.
Legend:
Format in all cases: functional, tissue-based
[1] = target: Cannabinoid receptor 1 (Rattus norvegicus) (UniProt P20272); experiment: Efficacy at CB1 receptor in rat brain by [35S]GTPgammaS binding assay (basal value set at 100%)
Cannabinoid receptor 1 = Cannabinoid receptor 1 (Rattus norvegicus, UniProt P20272); experiment: Potency at CB1 receptor in rat brain by [35S]GTP-gamma-S binding assay
[2] = target: Cannabinoid receptor 1 (Rattus norvegicus) (UniProt P20272); experiment: Potency at CB1 receptor in rat brain by [35S]GTP-gamma-S binding assay at 0.1 mM
[3] = target: Cannabinoid receptor 1 (Rattus norvegicus) (UniProt P20272); experiment: Efficacy at CB1 receptor in rat brain by [35S]GTP-gamma-S binding assay at 0.1 mM (basal value set at 100%)

Chain of Cannabinoid receptor 1 (P20272 whole entry): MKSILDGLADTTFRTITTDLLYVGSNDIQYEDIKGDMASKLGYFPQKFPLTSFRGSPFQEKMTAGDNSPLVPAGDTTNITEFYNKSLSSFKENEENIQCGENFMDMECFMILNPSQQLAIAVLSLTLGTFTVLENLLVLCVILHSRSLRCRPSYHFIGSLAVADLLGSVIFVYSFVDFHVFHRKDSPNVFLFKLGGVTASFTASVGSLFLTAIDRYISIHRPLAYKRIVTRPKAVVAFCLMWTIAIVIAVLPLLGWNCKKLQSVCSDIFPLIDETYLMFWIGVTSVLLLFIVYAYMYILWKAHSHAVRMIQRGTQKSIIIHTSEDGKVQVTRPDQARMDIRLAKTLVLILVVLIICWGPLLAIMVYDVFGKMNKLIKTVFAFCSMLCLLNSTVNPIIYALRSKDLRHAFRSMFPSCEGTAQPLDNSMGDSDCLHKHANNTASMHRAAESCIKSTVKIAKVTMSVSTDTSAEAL
Chain of Cannabinoid receptor 1 (Rattus norvegicus) (P20272 whole entry): as above

Row | Compound | Emax [1] [%] | EC50 (Cannabinoid receptor 1) [µM] | Log EC50 [2] | Emax [3]
1 | CCCCC/C=C\C/C=C\C/C=C\C/C=C\CC[C@@H](C)C(=O)OC(CO)CO | 407 | 10 |  | 
2 | CCCCC/C=C\C/C=C\C/C=C\C/C=C\CC[C@H](C)C(=O)OC(CO)CO | 227 | 15.8 |  | 
3 | CCCCC/C=C\C/C=C\C/C=C\C/C=C\CC[C@@H](C)C(=O)OC(CF)CF |  |  | inactive | inactive
4 | CCCCC/C=C\C/C=C\C/C=C\C/C=C\CC[C@@H](C)C(=O)OC(CO)CF (mixture of isomers) | 168 | 15.8 |  | 
5 | CCCCC/C=C\C/C=C\C/C=C\C/C=C\CCCC(=O)OC(CO)CO | 620 |  |  | 
